Here are results for one compound from patent US20230233483A1, “COMPOUND AND METHOD FOR THE TREATMENT OF CORONAVIRUSES” (Apteeus, priority 2020, published 2023).

The assay concerns SARS-CoV-2 of lineage B1 containing the D614G mutation; SARS-CoV-2 of lineage B1.1.7. The class given is cell-based.

As for `CC(C)(C)CC(C)(C)c1ccc(O)c(Cc2ccc(Cl)cc2Cl)c1` [clofoctol, 2-(2,4-Dichlorobenzyl)-4-(1,1,3,3-tetramethylbutyl)phenol], the “Genomic replication of variants of SARS-CoV-2 (RT-qPCR)” value is reported as “inhibits the genomic replication of variants of SARS-CoV-2”.
